Test results reported in patent US20260242359A1, “IRHOM2 INHIBITORS AND USES THEREOF” (NEW YORK SOCIETY FOR THE RELIEF OF THE RUPTURED AND …, priority 2023, published 2026).

Tests used:
Format in all cases: cell-based
[1] = test system: TNFα release from LPS-stimulated THP-1 cells (iRhom2/ADAM17-dependent); experiment: Primary screen (Example 1a): LPS-stimulated TNFα release from THP-1 cells, HTRF; conditions: Homo sapiens, LPS 100 ng/mL, 3 h, normalized against 50 μM Batimastat, read-out: Primary Screen XC50 TNFα
Procedure: (§1) Two separate screens to identify novel small molecule inhibitors of iRhom2/ADAM17 activity were developed. […] Therefore, the primary screen for small molecule inhibitors of iRhom2/ADAM17 was a screen for inhibitors that blocked the release of TNFα from LPS-stimulated THP-1 human myeloid cells, a process that depends on iRhom2 and ADAM17. […]
THP-1 cells were plated in 384 or 1,536 wells and transferred on the ultra-high throughput screening (uHTS) platform Mark III, and TNFα shedding was initiated by LPS stimulation of THP-1 cells. The extent of released TNFα was detected with the corresponding HTRF antibodies labeled with europium cryptate (donor) and d2 (acceptor). […]
7.5 nL compound and controls in DMSO [10 μM in assay; 0.25% DMSO in 3 μL Assay] were dissolved in 2 μL cell suspension [2.4E6/mL; 4800 cells/well; culture w/o PenStrep], pre-incubated at 37° C., 5% CO2, for 15 min with 1 μL LPS [100 ng/mL in 3 μL assay]. […] After an incubation at room temperature for 2 h or longer, the HTRF readout was performed. […]

[2] = test system: PMA-stimulated KL2 release from HEK-293 cells (iRhom2/ADAM17 selective substrate); experiment: Secondary screen (Example 3a): PMA-stimulated KL2 release from HEK-293 cells, AP readout; conditions: Homo sapiens, HEK293, HEK-293 cells expressing KL2-AP, PMA 500 ng/mL, 2 h, read-out: Secondary Screen XC50 KL2
Source text: as §1
(§2) First, expression plasmids for alkaline phosphatase (AP)-fused KL2 and TGFα were designed and generated through gene synthesis followed by subcloning into the pcDNA3.1(+)/Hygro expression vector. […] During cell culturing, cell density and viability were monitored to ensure optimal conditions for the transfections. After PMA stimulation, AP-coupled KL2 or TGFα were detected by measurement of AP activity in the supernatant. […]
(§3) After electroporation, cells were further cultured in presence of selection antibiotics, hygromycin B, to generate stably transfected polyclonal cell pools. […] Final assay conditions were determined for the selected pools. […]
60 μL of cells (40,000/well) were added to a sterile 384-well plate. […] The reaction was stopped by addition of 20 μL of NaOH (1 M final conc.) and the absorbance of pNP was measured at 405 nm.

[3] = test system: PMA-stimulated TGFα release from HEK-293 cells (substrate of iRhom1/ADAM17 and iRhom2/ADAM17); experiment: Counter screen (Example 4a): PMA-stimulated TGFα release from HEK-293 cells, AP readout; conditions: Homo sapiens, HEK293, HEK-293 cells expressing TGFα-AP, PMA 100 ng/mL, 2 h, read-out: Counter Screen XC50 TGFα
Procedure: A tertiary counterscreen was also performed to monitor the release of TGFα, which is a substrate of iRhom1/ADAM17 and iRhom2/ADAM17, so its release should not be blocked by an iRhom2-selective inhibitor (Maretzky T et al. (July 2013), “iRhom2 controls the substrate selectivity of stimulated ADAM117-dependent ectodomain shedding”, PNAS 110(28): 11433-11438; and Li X et al. (May 2015), “iRhoms 1 and 2 are essential upstream regulators of ADAM17-dependent EGFR signaling”, PNAS 112(19): 6080-6085).
as §2, §3
60 μL of cells (20,000/well) were added to a sterile 384-well plate. […] The reaction was stopped by addition of 20 μL of NaOH (1 M final conc.) and the absorbance of pNP was measured at 405 nm.

| Compound | IC50 [1] [µM] | IC50 [2] [µM] | IC50 [3] [µM] |
| --- | --- | --- | --- |
| CCOC(=O)c1ccc(Nc2nc3nonc3n3nnnc23)cc1 [Compound 2] | < 0.802 | > 128 | 9.91 |
| CCC(=O)NCCc1c(/C=C2/C(=O)NC(=O)N(c3ccc(C)cc3C)C2=O)[nH]c2ccccc12 [Compound 1] | < 0.802 | > 128 | 12.6 |
